# Measured values reported in US7811604B1, “Non-effervescent, orally disintegrating solid pharmaceutical dosage forms comprising clozapine and methods of making and using the same” (Barr Laboratories, Inc., priority 2005, dated 2010).
# Where a SMILES comes first, the peptide text is derived from it.
# How the values were obtained:
# [1] = Particle size and particle size distribution of ingredients; format: physicochemical; settings: for D50: median particle size of ingredient used for Dosage Form A; for D10 / D90: particle size distribution of ingredient used for Dosage Form A; for VMD: volume mean diameter D[4,3] of ingredient used for Dosage Form A
# Excerpt: As used herein, the term “particle size” refers to particle diameter. Particle size and particle size distribution can be measured using, for example, a Hyac/Royco particle size analyzer, a Malvern particle size analyzer, a Beckman Coulter laser diffraction particle size analyzer, or a Shimadzu laser diffraction particle size analyzer. As used herein, the term “diameter” relates to a volumetric measurement based on an approximate spherical shape of a particle. In addition to encompassing free base clozapine particles of a given size, the present invention is also directed to formulations and solid oral dosage forms wherein the distribution of particle sizes of free base clozapine and the excipients are controlled. As used herein, a “distribution” refers to the number or concentration (i.e., percentage) of particles having a certain size, or range of sizes, within a given lot, batch, or solid oral dosage form of the present invention.
# As used herein, “volume mean diameter,” when used in reference to the size of particles for use with the present invention, refers to the value of the volume moment mean as represented by D[4,3]. This value indicates the central point of frequency around which the distribution of surface area or volume rotates.
# As used herein, the “median” particle size is synonymous with the “particle size D50,” in microns. For example, for the five particle values listed above, the median diameter, or particle size D50, would be 20 μm.
# As used herein, “particle size D90,” refers a mixture wherein about 90% of all measurable particles have a diameter equal to or less than the value D90, in microns, and 10% of the measurable particles have a diameter greater than the value of D90, in microns.
# The particle size and particle size distribution of the various excipient used in the particulate mixture of the present invention are listed in Table 2.
# [2] = Compaction index of excipients; format: physicochemical; settings: force to fracture a solid mass prepared by compaction of 500 mg of powder under 1000 lbs pressure, 16/32″ die, flat face punches
# Excerpt: In some embodiments, the concentration of the non-polymeric water-soluble carrier, disintegrant, and water-insoluble polymer can be selected to optimize the physical integrity of the dosage forms of the present invention (i.e., to minimize the friability of the dosage forms of the present invention). Not being bound by any particular theory, the durability, robustness, and/or friability of the compressed dosage forms of the present invention can be estimated using the compaction index of the excipients used to prepare the dosage forms. As used herein, “compaction index” refers to the force in kiloponds (kp) required to fracture a solid mass prepared by compaction of 500 mg of powder under 1000 lbs pressure using a 16/32″ die and flat face punches. To obtain dosage forms having both low friability and low hardness, a mixture used to prepare the dosage forms can have a compaction index of at least about 5 kp/500 mg/1000 lbs. Not being bound by any particular theory, the compaction index can be used as an indicator of particle interactions in a compressed solid dosage form. For example, the compression of a dry mixture usually has a significant effect on the inter-particle interactions within the mixture, and can involve combinations of • (i) closer contact between particles and the exclusion of air; • (ii) alignment and interlocking of particles; • (iii) the development of stresses and shearing forces that result in fracture and the generation of smaller particles; • (iv) elastic and plastic deformations of particles that can change particle shape; and • (v) chemical bonding between adjacent particles, especially during long-term storage.
# Depending on the properties of the excipients comprising the mixture, powdered mixtures can undergo elastic, plastic, or visco-elastic deformation, or brittle fracture, when placed under compressive force. After compression, a compressed dosage form tends to undergo elastic recovery, visco-elastic recovery or brittle fracture. […]
D50 [1],D10 [1],D90 [1],VMD [1],Compaction index [2],SMILES
19 μm,5 μm,51 μm,25 μm,–,"CN1CCN(C2=Nc3cc(Cl)ccc3Nc3ccccc32)CC1 [Free base clozapine, 8-chloro-11-(4-methyl-1-piperazinyl)-5H-dibenzo[b,e][1,4]diazepine, reference compound]"
–,–,–,–,10 kp/500 mg/1000 lbs,COC(=O)[C@H](Cc1ccccc1)NC(=O)[C@@H](N)CC(=O)O [Aspartame] (H-Asp-Phe-OMe)
167 μm,86 μm,310 μm,184 μm,0.7 kp/500 mg/1000 lbs,OC[C@@H](O)[C@H](O)[C@@H](O)CO [Xylitol]
221 μm,81 μm,507 μm,263 μm,9 kp/500 mg/1000 lbs,OC[C@@H](O)[C@@H](O)[C@H](O)[C@H](O)CO [Mannitol]
